We go through 4 compounds from patent US20140041062A1, “GENETICALLY ENGINEERED MOUSE MODEL FOR AUTISM SPECTRUM DISORDER HAVING DELETION OF SHANK2 GENE AND USE THEREOF” (Industry-Academic Cooperation Foundation, Yonsei University, priority 2012, published 2014).

One assay relates to LTP and LTD. As to conditions: cited from earlier work.
Another assay concerns autism. The following applies: cited from earlier work.
The subject of a further assay is NMDAR. Nature of the assay: NMDA/AMPA ratio at hippocampal SC-CA1 synapses of Shank2−/− slices. It counts as cell-based, mouse. As to conditions: for NMDA/AMPA ratio: Shank2−/− SC-CA1 synapses / slices; for NMDAR function: Shank2−/− mice, figure legend. The text has this:
Thus, the present inventors measured the NMDA/AMPA ratio at Shank2^−/− SC-CA1 synapses. Indeed, the NMDA/AMPA ratio was reduced relative to wild-type synapses (FIG. 2e).
Reduced NMDAR function and associated signaling may contribute to autism spectrum disorder (ASD)-like behaviors in Shank2^−/− mice.
(§1) Consistent with previous findings, CDPPB also normalized the NMDA/AMPA ratio in Shank2^−/− slices (FIG. 4a). […] The smaller extents of signaling deficits in older mice (8 weeks) relative to younger mice (3-4 weeks) may reflect age-dependent reductions in NMDAR-mediated currents, and/or compensatory changes in NMDAR signaling.

Assay [1] concerns Shank2−/− mice. Kind of assay: Three-chamber social interaction assay. It counts as in vivo, mouse. The procedure: The three-chamber social interaction assay consisted of three phases. In the first phase, a wild-type or Shank2^−/− mouse was placed in the three-chambered apparatus with two small containers in the left or right (not center) chamber, and was allowed to explore the environment freely for 10 min for habituation. After 10 min, the wild-type or Shank2^−/− mouse was gently guided to the center chamber, and the two entrances to the center chamber were blocked while an inaminate object (Object) and a stranger mouse (Stranger 1) were placed in the two containers. Then, the two entrances were opened to allow the mouse in the center to explore the new environment freely for 10 min. In the third phase, the test mouse was gently guided to the center chamber again, with the blockade of the entrances. The Object was replaced with Stranger 2, followed by exploration of the Stranger 1 or 2 by the test mouse for 10 min. Exploration was defined as each instance in which wild-type or Shank2^−/− mouse tries to sniff Object/Stranger, or orients its nose towards and come close to Object/Stranger. Time spent in each chamber was measured by Ethovision 3.1 program (Noldus). Individual movement tracks were analyzed by Ethovision and modified by ImageJ to generate heat maps. In addition to time spent in chamber or in exploration, the present inventors used the preference index, which represents a difference in percent exploration time over the targets (Wang, X. et al. Hum Mol Genet 20, 3093-108 (2011)).
(§2) CDPPB (Ascent scientific) was dissolved in DMSO and polyethylene glycol 400 (DMSO:PEG 400=1:9) to a final concentration of 6 g/l. Wild-type and Shank2^−/− mice received intraperitoneal injection of CDPPB (10 or 3 mg/kg), or the same volume of DSMO-PEG400 mixture, 30 min before three-chamber or other behavioral assays and 40 min before brain sample preparation for immunoblot analyses. D-cycloserine (Ascent Scientific) was dissolved in saline to final concentration of 12 g/l. Wild-type and Shank2^−/− mice received intraperitoneal injection of D-cycloserine (20 mg/kg), or the same volume of saline, 30 min before three-chamber assays.

Assay [2] concerns neuroligin-1-deficient mice. The following applies: neuroligin-1-deficient mice with reduced NMDA/AMPA ratio; cited from earlier work.
For the next assay, the system named is SC-CA1 synapses. Nature of the assay: Synaptic plasticity (LTP, LTD) and basal transmission at SC-CA1 synapses of Shank2−/− mice. The format is cell-based, mouse. The procedure:
Next, the present inventors measured synaptic transmission at hippocampal Schaffer collaterals-CA1 pyramidal (SC-CA1) synapses. Basal excitatory transmission such as input-output and paired-pulse ratio was unchanged in Shank2^−/− mice (FIGS. 2a and 2b). In addition, spontaneous transmission and membrane excitability were normal in mutant animals. When synaptic plasticity was tested, long-term potentiation (LTP) induced by high frequency stimulation or theta-burst stimulation were severely impaired in Shank2^−/− mice (FIG. 2c). Long-term depression (LTD) induced by low-frequency stimulation was completely abolished also in Shank2^−/− mice (FIG. 2d). Because LTD induced by low-frequency stimulation activates both NMDA and metabotropic glutamate receptors (NMDARs and mGluRs), the present inventors isolated mGluR-LTD by bath-applying DHPG, an agonist of mGluR5, but found no difference between genotypes.
as §1

A further assay relates to NMDAR signaling. Kind of assay: Immunoblot analysis of NMDAR signaling in Shank2−/− whole brains and synaptosomes after CDPPB treatment. As to conditions: CDPPB i.p. 40 min before brain sample preparation. The format is in vivo, mouse. The procedure:
For whole brain homogenates, mouse brains (3-4 wks) were briefly homogenized in 3 volumes of ice-cold homogenization buffer (0.32 M sucrose, 10 mM HEPES pH7.4, 2 mM EDTA, protease inhibitors, phosphatase inhibitors). Protein concentrations were measured by the Bradford assay. The relative amount of […]α-tubulin was used as a loading control. Synaptosomal fractions were prepared (Blackstone, C. D. et al., J Neurochem 58, 1118-26 (1992)).
as §2
Shank2 deletion may also affect NMDAR-associated signaling that it critically regulates various synaptic events including LTP and LTD (Zhu, J. J. et al. Cell 110, 443-55 (2002); Shepherd, J. D. & Huganir, R. L. Annu Rev Cell Dev Biol 23, 613-43 (2007)). […]

Assay [3] deals with Shank2−/− mice. Kind of assay: Pup retrieval assay. It counts as in vivo, mouse. The following applies: CDPPB i.p. The procedure:
Virgin female mice were isolated for four days before pup retrieval assays. Three normal pups (1-d old; C57BL/6N) were placed at three different corners of a home cage of a test female mouse (wild-type or Shank2^−/−), and the female mouse was allowed to retrieve the pups for 10 min. Efficiency of pup retrieval was measured by the time taken to retrieve the first, second, and third pups.
as §2

Assay [4] concerns Shank2−/− mice. Kind of assay: Repetitive behaviors (jumping) in home cage. As to conditions: CDPPB i.p. The format is in vivo, mouse. The procedure:
Mice in their home cages with fresh bedding were used to measure times spent in repetitive behaviors including jumping, upright scrabbling, grooming, and digging during 10 min. Jumping was defined as the behavior of a mouse where it rears on it hind legs at the corner of the cage, or along the side walls, and jumps so that the two hind legs are simultaneously off the ground. Upright scrabbling was defined as the behavior of a mouse where it rears on it hind legs at the corner of the cage, or along the side walls, and tries to climb up against the wall with the two hind legs alternatively or coordinately touching the ground. Grooming behavior was defined as stroking or scratching of face, head, or body with the two forelimbs, or licking body parts. Digging behavior was defined as the behavior of a mouse where it coordinately uses two fore legs or hind legs to dig out or displace bedding materials.
(§3) CDPPB (Ascent scientific) was dissolved in DMSO and polyethylene glycol 400 (DMSO:PEG 400=1:9) to a final concentration of 6 g/l. Wild-type and Shank2^−/− mice received intraperitoneal injection of CDPPB (10 or 3 mg/kg), or the same volume of DSMO-PEG400 mixture, 30 min before three-chamber or other behavioral assays and 40 min before brain sample preparation for immunoblot analyses. D-cycloserine (Ascent Scientific) was dissolved in saline to final concentration of 12 g/l. […]

Assay [5] deals with Shank2−/− mice. Kind of assay: Anxiety-like behavior (elevated plus-maze, light-dark test). As to conditions: CDPPB i.p. The format is in vivo, mouse. The procedure: The elevated plus-maze consisted of two open arms, two closed arms, and a center area, elevated to a height of 50 cm above the floor. Mice were placed in the center area and allowed to explore the space for 8 min.
The apparatus for light-dark test consisted of light (˜600 lx) and dark (˜5 lx) chambers adhered to each other. An entrance enabled mice to freely move across the light and dark chambers. The size of light chamber was 20×30×20 cm, and that of dark chamber was 20×13×20 cm. Mice were introduced to the center of the light chamber with their heads pointing towards the opposite side of the dark chamber, and allowed to explore the apparatus freely for 10 min. The latency to enter the dark chamber, the time spent in dark and light chambers, and the number of transitions were measured. Transition was defined as the translocation of all four feet of a mouse from one to another chamber.
as §3

Assay [6] relates to Shank2−/− mice. Nature of the assay: Open field assay (hyperactivity). The format is in vivo, mouse. As to conditions: CDPPB i.p. The procedure:
The size of the open field box was 40×40×40 cm, and the center zone line was 10 cm apart from the edge. Mice were placed in the center of chamber in the beginning of assay, and mouse movements were recorded with a video camera for 60 min, and analyzed by Ethovision 3.1 program (Noldus).
as §2

Another assay concerns Shank3 knockdown. As to conditions: caused by Shank3 knockdown; cited from earlier work.

Entries after “also recorded” stand apart in the source; their conditions may differ.

Regarding `O=C(Nc1cc(-c2ccccc2)nn1-c1ccccc1)c1ccc([N+](=O)[O-])cc1` [VU-29], in the assay with LTP and LTD, the “LTP and LTD” value is “enhance”; the spatial learning entry was “enhance”.
Consider GLYX-13, for which, in the assay with autism, the “therapeutic effect on autism” value is listed as “showed a therapeutic effect”.
For the compound `N[C@@H]1CONC1=O` [D-cycloserine], in the assay with NMDAR, the NMDA/AMPA ratio entry is on record as “fully recovered” and the NMDAR function entry is listed as “normalizes”. The social interaction entry in the assay with Shank2−/− mice [1] (D-cycloserine 20 mg/kg i.p. 30 min before assay) is “improved”. Moreover, in assay [2], the repetitive grooming entry is “rescue”.
As for `N#Cc1cccc(C(=O)Nc2cc(-c3ccccc3)nn2-c2ccccc2)c1` [CDPPB], in the assay with NMDAR, the NMDA/AMPA ratio entry was “normalized” and the NMDAR function entry is on record as “normalizes”. For the same compound, in the assay with SC-CA1 synapses, the basal synaptic transmission entry is listed as “without affecting”, the “impaired LTD at SC-CA1 synapses” value is recorded as “restored” and the “impaired LTP at SC-CA1 synapses” value is “restored”. The “NMDAR signaling in synaptosomes” value with NMDAR signaling (Shank2−/− synaptosomes) is “fully normalized”. In addition, in the assay on NMDAR signaling (Shank2−/− whole brains), the “NMDAR signaling in whole brains” value is “fully normalized”. In addition, in the assay on Shank2−/− mice [1] (CDPPB 10 mg/kg i.p. 30 min before assay), the social interaction entry is recorded as “substantially improves; also recorded: substantial recoveries”. Further, the social novelty recognition result in the assay on Shank2−/− mice [1] (CDPPB i.p.) was “no effect”. Moreover, in the assay on Shank2−/− mice [1] (lower-dose CDPPB (3 mg/kg i.p.)), the “social interaction, lower-dose” value is listed as “did not rescue”. Further, in the assay on Shank2−/− mice [3], the impaired pup retrieval result is recorded as “did not rescue”. Further, the repeated jumping entry in the assay with Shank2−/− mice [4] is listed as “did not rescue”. Besides, the anxiety-like behaviors result in the assay on Shank2−/− mice [5] is on record as “did not rescue”. For the same compound, the hyperactivity entry in the assay on Shank2−/− mice [6] was “did not rescue”. Further, in the assay on Shank3 knockdown, the “reduced ERK phosphorylation” value is reported as “restores” and the reduced excitatory transmission result is on record as “restores”. Moreover, in the assay on LTP and LTD, the “LTP and LTD” value is listed as “enhance”; the spatial learning entry was “enhance”.
